Where two headings read alike, the source gives them in different places.
Experiments:
[1] = test system: Orobanche minor; test: Parasitic plant germination induction test (Orobanche minor seeds); assay type: in vivo; settings: in the dark for 2 days
Method: (§1) A parasitic plant germination induction test was conducted using the compounds synthesized in Example 1 as test compounds. The seeds of a parasitic plant (Striga hermonthica, Orobanche minor, or Phelipanche aegyptiaca) were suspended in sterilized ultrapure water, and this was dispensed in an amount of 100 µL each (containing about 20 seeds) into a 96-well plate. The test compounds or control compounds (Comparison Compound 1 or synthetic Strigolactone (GR^24: Comparison Compound 2)) dissolved in DMSO were individually added thereto to a final concentration of these compounds of 10 nM to 1 fM (1 × 10^-8 to 1 × 10^-15 M), and allowed to stand in the dark for 2 days. The presence or absence of germination was observed using a microscope, and the germination rate (i.e., number of germinated seeds/total number of seeds) was measured. The higher the germination rate in the parasitic plant germination induction test, or the higher the germination rate at lower concentration, the higher the Striga germination inducing activity.
(§2) In Tables 1 to 6, the concentrations (10 nM, 1 nM, and 0.1 nM) represent compound concentrations. In Tables 1-6, the evaluation criteria for the compounds are as follows: • ++: germination rate of 20% or more • +: germination rate of 5% or more and less than 20% • -: germination rate of less than 5% Table 1

[2] = biological target: T1, AtD14 (Arabidopsis thaliana, UniProt Q9SQR3); test: Affinity for strigolactone receptor, YLG probe competition (fluorescence); assay type: binding
T1 construct: made in house; host or cells: E. coli
T1 sequence (Q9SQR3 1-267): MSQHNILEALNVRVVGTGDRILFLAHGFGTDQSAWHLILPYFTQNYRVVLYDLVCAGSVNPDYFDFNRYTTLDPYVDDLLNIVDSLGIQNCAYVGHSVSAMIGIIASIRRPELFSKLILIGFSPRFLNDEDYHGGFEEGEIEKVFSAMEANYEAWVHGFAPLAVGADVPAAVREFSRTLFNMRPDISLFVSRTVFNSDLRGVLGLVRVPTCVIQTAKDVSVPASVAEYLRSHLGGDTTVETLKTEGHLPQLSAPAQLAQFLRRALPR
Source text: PTL 1 reports that the affinity of a test compound for the strigolactone receptor can be evaluated by reacting strigolactone with a probe for evaluation of affinity for a strigolactone receptor (e.g., YLG) in the presence of the test compound, and measuring the fluorescence emitted from the decomposition product of YLG. […] The details are as follows.
An Arabidopsis thaliana strigolactone receptor (AtD14) was produced in accordance with a usual method. More specifically, cDNA of the receptor was obtained by RT-PCR, and expression and purification were carried out in E. coli. Additionally, Striga strigolactone receptors were produced by the method disclosed in PTL 1 (ShHTL1: amino acid SEQ ID NO: 1, ShHTL2: amino acid SEQ ID NO: 2, ShHTL3: amino acid SEQ ID NO: 3, ShHTL4: amino acid SEQ ID NO: 4, ShHTL5: amino acid SEQ ID NO: 5, ShHTLS: amino acid SEQ ID NO: 6, ShHTL7: amino acid SEQ ID NO: 7, ShHTLS: amino acid SEQ ID NO: 8, ShHTL9: amino acid SEQ ID NO: 9, ShHTL10: amino acid SEQ ID NO: 10, and ShHTL11: amino acid SEQ ID NO: 11.)
One hundred microliters of a reaction solution containing each of the obtained strigolactone receptors ([…]), YLG (final concentration: […]), and each of the test compounds (final concentration: 0.01 to 10 µM) or the control compound (5-deoxystrigol, final concentration: 0.01 to 10 µM) as a competitive compound (100 mM HEPES, 150 mM NaCl, pH: 7.0, 0.1% DMSO) was prepared and reacted in a 96 black-well plate (Greiner). Sixty after the initiation of the reaction, fluorescence was detected at an excitation wavelength of 480 nm and a detection wavelength of 520 nm using a fluorescence detector (SpectraMax i3, manufactured by Molecular Devices), and the fluorescence intensity was measured.

[3] = test system: Phelipanche aegyptiaca; test: Parasitic plant germination induction test (Phelipanche aegyptiaca seeds); assay type: in vivo; settings: in the dark for 2 days
Method: as §1, §2

[4] = AtD14, competition with YLG, test range 0.01 to 10 µM, pH 7.0, read-out: IC50 values of test compounds

| SMILES | Germination rate 0.1 nM ([1]; compound concentration 0.1 nM) | Germination rate 1 nM ([1]; compound concentration 1 nM) | Germination rate 10 nM ([1]; compound concentration 10 nM) | IC50 [2] [µM] | Germination rate 1 nM ([3]; compound concentration 1 nM) | Germination rate 10 nM ([3]; compound concentration 10 nM) | IC50 [2, 4] [µM] |
| --- | --- | --- | --- | --- | --- | --- | --- |
| CCCCOc1ccc(S(=O)(=O)N2CCN(C(=O)OC3C=C(C)C(=O)O3)CC2)cc1 (centres unmarked) [Compound 1] | - (germination rate of less than 5%) | ++ (germination rate of 20% or more) | ++ (germination rate of 20% or more) | > 10 | - (germination rate of less than 5%) | + (germination rate of 5% or more and less than 20%) | – |
| CC1=CC(OC=C2C(=O)OC3C4=C(CCCC4(C)C)CC23)OC1=O (centres unmarked) [5-Ddeoxystriqol, 5-deoxystrigol, reference compound] | – | – | – | – | – | – | 0.44 |
| CCCCOc1ccc(S(=O)(=O)N2CCN(C(=O)OC3C=CC(=O)O3)CC2)cc1 (centres unmarked) [Compound 13] | – | – | – | – | – | – | > 10 |

Reference: patent EP3693362B1, “PARASITIC PLANT GERMINATION REGULATOR” (National University Corporation Tokai National Higher …, priority 2017, dated 2019)
